Experimental data taken from patent US4393225A, “AI-77 Compounds and pharmaceutically acceptable salts thereof” (Asahi Kasei Kogyo Kabushiki Kaisha, priority 1979, dated 1983).
Read-outs that look alike come from different tables or passages of the source.

Tested on: ulcer
Assay: Anti-ulcer test (restraint and water immersion ulcer in rats, i.p.)
Assay type: in vivo, Male Wistar rats
Conditions: Rattus norvegicus, ip, read-out: % Inhibition of Ulcer; for inhibition in vivo at 50 mg/kg: 50 mg/kg i.p.
Method in brief: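 Male Wistar rats (~150 g), fasted 24 h, dosed i.p. with compound in physiological saline; 1 h later restrained and immersed to xiphisternum in 21 °C water for 6 h. Stomachs examined microscopically, ulcers scored 0–3, and percent inhibition calculated.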

Compound	inhibition in vivo at 25 mg/kg (25 mg/kg i.p.)	further results
CC(C)CC(NC(=O)C(O)C1C=CC(=O)O1)C1Cc2cccc(OCc3ccco3)c2C(=O)O1 (stereo not shown) [IVa-4-13]	–	inhibition in vivo at 50 mg/kg: 33%
CC(C)CC(NC(=O)C(O)C1C=CC(=O)O1)C1Cc2cccc(OCC3CCCO3)c2C(=O)O1 (stereo not shown) [IVa-4-14]	–	inhibition in vivo at 50 mg/kg: 33%
CC(C)CC(NC(=O)C(O)C1C=CC(=O)O1)C1Cc2cccc(OCCC3CCCCO3)c2C(=O)O1 (stereo not shown) [IVa-4-15]	–	inhibition in vivo at 50 mg/kg: 44%
CC(=O)N1CCC(COc2cccc3c2C(=O)OC(C(CC(C)C)NC(=O)C(O)C2C=CC(=O)O2)C3)CC1 (stereo not shown) [IVa-4-16]	–	inhibition in vivo at 50 mg/kg: 33%
CC(C)CC(NC(=O)C(O)C1C=CC(=O)O1)C1Cc2cccc(OCc3ccc4ccccc4c3)c2C(=O)O1 (stereo not shown) [IVa-4-17]	–	inhibition in vivo at 50 mg/kg: 33%
CC(C)CC(NC(=O)C(O)C1C=CC(=O)O1)C1Cc2cccc(OCCc3ccc4ccccc4c3)c2C(=O)O1 (stereo not shown) [IVa-4-18]	–	inhibition in vivo at 50 mg/kg: 33%
CC(C)CC(NC(=O)C(O)C1C=CC(=O)O1)C1Cc2cccc(OCCCBr)c2C(=O)O1 (stereo not shown) [IVa-4-19]	–	inhibition in vivo at 50 mg/kg: 44%
CCC(=O)COc1cccc2c1C(=O)OC(C(CC(C)C)NC(=O)C(O)C1C=CC(=O)O1)C2 (stereo not shown) [IVa-4-20]	–	inhibition in vivo at 50 mg/kg: 44%
Cc1ccc(COc2cccc3c2C(=O)OC(C(CC(C)C)NC(=O)C(O)C2C=CC(=O)O2)C3)cc1 (stereo not shown) [IVa-4-21]	–	inhibition in vivo at 50 mg/kg: 33%
CC(C)CCc1ccc(COc2cccc3c2C(=O)OC(C(CC(C)C)NC(=O)C(O)C2C=CC(=O)O2)C3)cc1 (stereo not shown) [IVa-4-22]	–	inhibition in vivo at 50 mg/kg: 33%
COc1ccc(COc2cccc3c2C(=O)OC(C(CC(C)C)NC(=O)C(O)C2C=CC(=O)O2)C3)cc1 (stereo not shown) [IVa-4-23]	–	inhibition in vivo at 50 mg/kg: 33%
CC(C)CCOc1ccc(COc2cccc3c2C(=O)OC(C(CC(C)C)NC(=O)C(O)C2C=CC(=O)O2)C3)cc1 (stereo not shown) [IVa-4-24]	–	inhibition in vivo at 50 mg/kg: 33%
CC(C)CC(NC(=O)C(O)C(O)C(N)CC(N)=O)C1Cc2cccc(O)c2C(=O)O1 (stereo not shown) [VII-1-1]	–	inhibition in vivo at 25 mg/kg: 100%
CNC(=O)CC(N)C(O)C(O)C(=O)NC(CC(C)C)C1Cc2cccc(O)c2C(=O)O1 (stereo not shown) [VII-1-2]	100%	–
CCNC(=O)CC(N)C(O)C(O)C(=O)NC(CC(C)C)C1Cc2cccc(O)c2C(=O)O1 (stereo not shown) [VII-1-3]	100%	–
CCCCNC(=O)CC(N)C(O)C(O)C(=O)NC(CC(C)C)C1Cc2cccc(O)c2C(=O)O1 (stereo not shown) [VII-1-4]	100%	–
CC(C)CCNC(=O)CC(N)C(O)C(O)C(=O)NC(CC(C)C)C1Cc2cccc(O)c2C(=O)O1 (stereo not shown) [VII-1-5]	100%	–
CCCCCCCCCCCCCCCCCCNC(=O)CC(N)C(O)C(O)C(=O)NC(CC(C)C)C1Cc2cccc(O)c2C(=O)O1 (stereo not shown) [VII-1-6]	89%	–
CCCCCCCCC=CCCCCCCCCNC(=O)CC(N)C(O)C(O)C(=O)NC(CC(C)C)C1Cc2cccc(O)c2C(=O)O1 (stereo not shown) [VII-1-8]	89%	–
CC(C)CC(NC(=O)C(O)C(O)C(N)CC(=O)NCc1ccccc1)C1Cc2cccc(O)c2C(=O)O1 (stereo not shown) [VII-1-10]	94%	–
CC(C)CC(NC(=O)C(O)C(O)C(N)CC(=O)NC1CC1)C1Cc2cccc(O)c2C(=O)O1 (stereo not shown) [VII-1-11]	94%	–
CC(C)CC(NC(=O)C(O)C(O)C(N)CC(=O)NCC1CCCCC1)C1Cc2cccc(O)c2C(=O)O1 (stereo not shown) [VII-1-12]	94%	–
CC(C)CC(NC(=O)C(O)C(O)C(N)CC(=O)NCCc1ccccc1)C1Cc2cccc(O)c2C(=O)O1 (stereo not shown) [VII-1-13]	89%	–

Compound	inhibition in vivo at 25 mg/kg (25 mg/kg i.p.)	further results
CC(C)CC(NC(=O)C(O)C(O)C(N)CC(=O)NCc1ccco1)C1Cc2cccc(O)c2C(=O)O1 (stereo not shown) [VII-1-14]	89%	–
CC(C)CC(NC(=O)C(O)C(O)C(N)CC(=O)NCC1CCCO1)C1Cc2cccc(O)c2C(=O)O1 (stereo not shown) [VII-1-15]	89%	–
CC(C)CC(NC(=O)C(O)C(O)C(N)CC(=O)NCCC1CCCCO1)C1Cc2cccc(O)c2C(=O)O1 (stereo not shown) [VII-1-16]	94%	–
CC(=O)N1CCC(CNC(=O)CC(N)C(O)C(O)C(=O)NC(CC(C)C)C2Cc3cccc(O)c3C(=O)O2)CC1 (stereo not shown) [VII-1-17]	83%	–
CC(C)CC(NC(=O)C(O)C(O)C(N)CC(=O)NCc1ccc2ccccc2c1)C1Cc2cccc(O)c2C(=O)O1 (stereo not shown) [VII-1-18]	78%	–
CC(C)CC(NC(=O)C(O)C(O)C(N)CC(=O)NCCc1ccc2ccccc2c1)C1Cc2cccc(O)c2C(=O)O1 (stereo not shown) [VII-1-19]	78%	–
CC(C)CC(NC(=O)C(O)C(O)C(N)CC(=O)NCc1cccc(Cl)c1)C1Cc2cccc(O)c2C(=O)O1 (stereo not shown) [VII-1-20]	94%	–
CCC(=O)CNC(=O)CC(N)C(O)C(O)C(=O)NC(CC(C)C)C1Cc2cccc(O)c2C(=O)O1 (stereo not shown) [VII-1-21]	100%	–
Cc1ccc(CNC(=O)CC(N)C(O)C(O)C(=O)NC(CC(C)C)C2Cc3cccc(O)c3C(=O)O2)cc1 (stereo not shown) [VII-1-22]	83%	–
COc1ccc(CNC(=O)CC(N)C(O)C(O)C(=O)NC(CC(C)C)C2Cc3cccc(O)c3C(=O)O2)cc1 (stereo not shown) [VII-1-24]	83%	–
COC(C)CCNC(=O)CC(N)C(O)C(O)C(=O)NC(CC(C)C)C1Cc2cccc(O)c2C(=O)O1 (stereo not shown) [VII-1-26]	94%	–
CCCCCOC(C)CCNC(=O)CC(N)C(O)C(O)C(=O)NC(CC(C)C)C1Cc2cccc(O)c2C(=O)O1 (stereo not shown) [VII-1-27]	–	inhibition in vivo at 25 mg/kg: 89%
CC(=O)OC(C)CCNC(=O)CC(N)C(O)C(O)C(=O)NC(CC(C)C)C1Cc2cccc(O)c2C(=O)O1 (stereo not shown) [VII-1-28]	94%	–
CCCCCC(=O)OC(C)CCNC(=O)CC(N)C(O)C(O)C(=O)NC(CC(C)C)C1Cc2cccc(O)c2C(=O)O1 (stereo not shown) [VII-1-29]	94%	–
CC(C)=CCCC(C)=CCNC(=O)CC(N)C(O)C(O)C(=O)NC(CC(C)C)C1Cc2cccc(O)c2C(=O)O1 (stereo not shown) [VII-1-30]	83%	–
CCC(C)CCCCCNC(=O)CC(N)C(O)C(O)C(=O)NC(CC(C)C)C1Cc2cccc(O)c2C(=O)O1 (stereo not shown) [VII-1-31]	83%	–
CC(C)CC(NC(=O)C(O)C(O)C(N)CC(=O)NCC1CCCCCCC1)C1Cc2cccc(O)c2C(=O)O1 (stereo not shown) [VII-1-33]	83%	–
CC(C)CC(NC(=O)C(O)C(O)C(N)CC(=O)NCCCC1CCCC1)C1Cc2cccc(O)c2C(=O)O1 (stereo not shown) [VII-1-34]	83%	–
Cc1ccc(CCNC(=O)CC(N)C(O)C(O)C(=O)NC(CC(C)C)C2Cc3cccc(O)c3C(=O)O2)cc1 (stereo not shown) [VII-1-35]	83%	–
CC(C)CCCC(C)CCCC(C)CCCCNC(=O)CC(N)C(O)C(O)C(=O)NC(CC(C)C)C1Cc2cccc(O)c2C(=O)O1 (stereo not shown) [VII-1-36]	83%	–
CC(C)CC(NC(=O)C(O)C(O)C(N)CC(=O)NCc1ccc(C(C)C)cc1)C1Cc2cccc(O)c2C(=O)O1 (stereo not shown) [VII-1-38]	94%	–
CCCCCc1ccc(CNC(=O)CC(N)C(O)C(O)C(=O)NC(CC(C)C)C2Cc3cccc(O)c3C(=O)O2)cc1 (stereo not shown) [VII-1-40]	94%	–
CCCC=Cc1ccc(CNC(=O)CC(N)C(O)C(O)C(=O)NC(CC(C)C)C2Cc3cccc(O)c3C(=O)O2)cc1 (stereo not shown) [VII-1-41]	83%	–

Compound	inhibition in vivo at 25 mg/kg (25 mg/kg i.p.)	further results
CC(C)CC(NC(=O)C(O)C(O)C(N)CC(=O)NC(C)C)C1Cc2cccc(O)c2C(=O)O1 (stereo not shown) [VII-1-42]	94%	–
Cc1ccc(NC(=O)CC(N)C(O)C(O)C(=O)NC(CC(C)C)C2Cc3cccc(O)c3C(=O)O2)cc1 (stereo not shown) [VII-1-43]	94%	–
CC(C)CC(NC(=O)C(O)C(O)C(N)CC(=O)NCCN1CCCCC1)C1Cc2cccc(O)c2C(=O)O1 (stereo not shown) [VII-1-46]	94%	–
CC(=O)OC(C(=O)NC(CC(C)C)C1Cc2cccc(O)c2C(=O)O1)C(O)C(N)CC(N)=O (stereo not shown) [VII-2-1]	78%	–
CC(=O)Oc1cccc2c1C(=O)OC(C(CC(C)C)NC(=O)C(OC(=O)C(C)C)C(O)C(N)CC(N)=O)C2 (stereo not shown) [VII-3-1]	78%	–
CCCC(=O)Oc1cccc2c1C(=O)OC(C(CC(C)C)NC(=O)C(OC(C)=O)C(O)C(N)CC(N)=O)C2 (stereo not shown) [VII-3-2]	78%	–
CC(C)CC(NC(=O)C(O)C(O)C(N)CC(N)=O)C1Cc2cccc(OC(=O)C(C)C)c2C(=O)O1 (stereo not shown) [VII-4-2]	89%	–
CCCCCCCCCCCCCCCCCC(=O)Oc1cccc2c1C(=O)OC(C(CC(C)C)NC(=O)C(O)C(O)C(N)CC(N)=O)C2 (stereo not shown) [VII-4-3]	78%	–
COc1cccc2c1C(=O)OC(C(CC(C)C)NC(=O)C(O)C(O)C(N)CC(N)=O)C2 (stereo not shown) [VII-5-1]	78%	–
CCOc1cccc2c1C(=O)OC(C(CC(C)C)NC(=O)C(O)C(O)C(N)CC(N)=O)C2 (stereo not shown) [VII-5-2]	78%	–
CCCCNC(=O)CC(N)C(O)C(O)C(=O)NC(CC(C)C)C1Cc2cccc(OCC)c2C(=O)O1 (stereo not shown) [VII-5-3]	78%	–
CCOc1cccc2c1C(=O)OC(C(CC(C)C)NC(=O)C(O)C(O)C(N)CC(=O)Nc1ccc(C)cc1)C2 (stereo not shown) [VII-5-4]	78%	–
CCOc1cccc2c1C(=O)OC(C(CC(C)C)NC(=O)C(OC(C)=O)C(O)C(N)CC(N)=O)C2 (stereo not shown) [VII-6-1]	66%	–
CCOc1cccc2c1C(=O)OC(C(CC(C)C)NC(=O)C(OC(=O)C(C)C)C(O)C(N)CC(N)=O)C2 (stereo not shown) [VII-6-2]	66%	–
CCOc1cccc2c1C(=O)OC(C(CC(C)C)NC(=O)C(OC(=O)CC)C(O)C(N)CC(N)=O)C2 (stereo not shown) [VII-6-3]	66%	–
CCCCOC(C(=O)NC(CC(C)C)C1Cc2cccc(OC)c2C(=O)O1)C(O)C(N)CC(N)=O (stereo not shown) [VII-7-1]	89%	–
CCCCOc1cccc2c1C(=O)OC(C(CC(C)C)NC(=O)C(OCCCC)C(O)C(N)CC(N)=O)C2 (stereo not shown) [VII-7-2]	72%	–
CCCCNC(=O)CC(N)C(O)C(OCCC)C(=O)NC(CC(C)C)C1Cc2cccc(OCC)c2C(=O)O1 (stereo not shown) [VII-7-4]	66%	–
COC(C(=O)NC(CC(C)C)C1Cc2cccc(O)c2C(=O)O1)C(O)C(N)CC(N)=O (stereo not shown) [VII-8-1]	–	inhibition in vivo at 25 mg/kg: 89%
CCOC(C(=O)NC(CC(C)C)C1Cc2cccc(O)c2C(=O)O1)C(O)C(N)CC(N)=O (stereo not shown) [VII-8-3]	89%	–
CCNC(=O)CC(N)C(O)C(OC)C(=O)NC(CC(C)C)C1Cc2cccc(OC(=O)CC)c2C(=O)O1 (stereo not shown) [VII-9-1]	66%	–
